Measurements from ChEMBL document CHEMBL1201862, “PubChem BioAssay data set” (2004).
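Grown in 96-well plates, cells were treated for 48 hours with each compound at five concentrations. Insufficient inhibition: endpoint recorded as highest concentration tested. GI50 = concentration required for 50% inhibition of growth.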 The source made the active and inactive calls. No stated cut-off is given here; in the data, active = GI50 up to about 1.1 µM and inactive = higher.

Key:
Test in all cases: DTP human tumour cell line panel, 48 h
SF-295 = system: SF-295
NCI-H460 = system: NCI-H460
SNB-75 = system: SNB-75
ACHN = system: ACHN
NCI-H226 = system: NCI-H226
KM12 = system: KM12
NCI-H23 = system: NCI-H23
DLD-1 = system: DLD-1
U-251 = system: U-251
COLO 205 = system: COLO 205
DMS-273 = system: DMS-273
CCRF-CEM = system: CCRF-CEM
OVCAR-4 = system: OVCAR-4
SK-OV-3 = system: SK-OV-3
MDA-MB-435 = system: MDA-MB-435
DU-145 = system: DU-145
BT-549 = system: BT-549
MDA-MB-231 = system: MDA-MB-231
M19-MEL = system: M19-MEL
LXFL 529 = system: LXFL 529

| SMILES | GI50 (SF-295) | GI50 (NCI-H460) | GI50 (SNB-75) | GI50 (ACHN) | GI50 (NCI-H226) | GI50 (KM12) | GI50 (NCI-H23) | GI50 (DLD-1) | GI50 (U-251) | GI50 (COLO 205) | GI50 (DMS-273) | GI50 (CCRF-CEM) | GI50 (OVCAR-4) | GI50 (SK-OV-3) | GI50 (MDA-MB-435) | GI50 (DU-145) | GI50 (BT-549) | GI50 (MDA-MB-231) | GI50 (M19-MEL) | GI50 (LXFL 529) |
| --- | --- | --- | --- | --- | --- | --- | --- | --- | --- | --- | --- | --- | --- | --- | --- | --- | --- | --- | --- | --- |
| COc1nc(NC2OCC(OC(C)=O)C(OC(C)=O)C2OC(C)=O)c(/N=C(\C)C(C)=O)c(=O)n1C (stereo not drawn) | > 100 µM (inactive) | > 100 µM (inactive) | > 100 µM (inactive) | > 100 µM (inactive) | 0.63 µM (active) | > 100 µM (inactive) | > 100 µM (inactive) | > 100 µM (inactive) | > 100 µM (inactive) | > 100 µM (inactive) | > 100 µM (inactive) | > 100 µM (inactive) | > 100 µM (inactive) |  |  |  |  |  |  |  |
| COc1cc2c(c3c1c(=O)c1ccccc1n3C)C=CC1(CCCCC1)O2 | 1.44 µM (inactive) | 3.82 µM (inactive) | 1.29 µM (inactive) | 3.13 µM (inactive) | 8.07 µM (inactive) | 0.603 µM (active) | > 7.67 µM (inactive) |  | 4.03 µM (inactive) | 4.34 µM (inactive) |  | 2.55 µM (inactive) | 4.65 µM (inactive) | 5.53 µM (inactive) | 2.38 µM (inactive) | > 9.1 µM (inactive) | 4.84 µM (inactive) | 4.83 µM (inactive) |  |  |
| CC(=O)OCC1OC(n2cnc3nc(Br)[nH]c(=O)c32)C(OC(C)=O)C1OC(C)=O (stereo not drawn) | > 100 µM (inactive) | > 100 µM (inactive) | 70.3 µM (inactive) | > 100 µM (inactive) | > 100 µM (inactive) | > 100 µM (inactive) | > 100 µM (inactive) |  | > 100 µM (inactive) | > 100 µM (inactive) |  | > 100 µM (inactive) | > 100 µM (inactive) | > 100 µM (inactive) | > 100 µM (inactive) | > 100 µM (inactive) | > 100 µM (inactive) | > 100 µM (inactive) |  |  |
| CN1Nc2ccccc2CC1=O | > 100 µM (inactive) | > 100 µM (inactive) | > 100 µM (inactive) | > 100 µM (inactive) | > 100 µM (inactive) | > 100 µM (inactive) | > 100 µM (inactive) | > 100 µM (inactive) | > 100 µM (inactive) | > 100 µM (inactive) | > 100 µM (inactive) | > 100 µM (inactive) | > 100 µM (inactive) | > 100 µM (inactive) |  |  |  |  | > 100 µM (inactive) |  |
| CCOC(=O)c1nnsc1NN | > 100 µM (inactive) | 55.8 µM (inactive) | > 100 µM (inactive) | > 100 µM (inactive) | > 100 µM (inactive) | 95.3 µM (inactive) | > 100 µM (inactive) |  | > 100 µM (inactive) | > 100 µM (inactive) |  | 18.8 µM (inactive) | > 100 µM (inactive) | > 100 µM (inactive) | > 100 µM (inactive) | > 100 µM (inactive) | > 100 µM (inactive) | 53.8 µM (inactive) |  |  |
| COc1ccccc1/C=C\c1cnnc2ccccc12 | > 10 µM (inactive) | > 10 µM (inactive) | 9.02 µM (inactive) | > 10 µM (inactive) | > 10 µM (inactive) | > 10 µM (inactive) | > 10 µM (inactive) |  | > 10 µM (inactive) | > 10 µM (inactive) |  | 6.59 µM (inactive) | > 10 µM (inactive) | > 10 µM (inactive) | 3.49 µM (inactive) | > 10 µM (inactive) | > 10 µM (inactive) | > 10 µM (inactive) |  |  |
| Nc1nc(=O)[nH]c2c1cnn2Cc1ccccc1 | > 100 µM (inactive) | > 100 µM (inactive) | > 100 µM (inactive) | > 100 µM (inactive) | 1.41 µM (inactive) | > 100 µM (inactive) | 1.56 µM (inactive) | > 100 µM (inactive) | 1.4 µM (inactive) | > 100 µM (inactive) | > 100 µM (inactive) | > 100 µM (inactive) | > 100 µM (inactive) |  |  |  |  |  |  | > 100 µM (inactive) |
| CC(=O)O[C@H]1C[C@H]2C(=S)Nc3ccccc3C(=S)N2C1 | > 100 µM (inactive) | > 100 µM (inactive) | 88.3 µM (inactive) | > 100 µM (inactive) | > 100 µM (inactive) | > 100 µM (inactive) | > 100 µM (inactive) |  | > 100 µM (inactive) | > 100 µM (inactive) |  | > 100 µM (inactive) | > 100 µM (inactive) | > 100 µM (inactive) | > 100 µM (inactive) | > 100 µM (inactive) | > 100 µM (inactive) | > 100 µM (inactive) |  |  |
| O=C(N/C(=C\c1ccccc1Cl)c1nc2ccccc2[nH]1)c1ccccc1 | 17 µM (inactive) |  |  | 30.5 µM (inactive) |  | 32.5 µM (inactive) | 25.1 µM (inactive) | 30.2 µM (inactive) | 27 µM (inactive) | 34.6 µM (inactive) |  | 30.4 µM (inactive) | 29 µM (inactive) | 31.6 µM (inactive) |  |  |  |  | 33 µM (inactive) | 21.9 µM (inactive) |
| COC(=O)C(N)CCCC(N)C(=O)NC(C)C(=O)NC(CCC(=O)NCCNCCNc1c2ccccc2nc2cccc([N+](=O)[O-])c12)C(N)=O (stereo not drawn) | 27.8 µM (inactive) | 3.17 µM (inactive) | 10.4 µM (inactive) | 10.2 µM (inactive) | 10.9 µM (inactive) | 10.5 µM (inactive) | 3.03 µM (inactive) |  | 5.48 µM (inactive) | 6.28 µM (inactive) |  | 7.59 µM (inactive) | 2.16 µM (inactive) | 28 µM (inactive) | 6.93 µM (inactive) | 6.28 µM (inactive) | 16.3 µM (inactive) | 16.9 µM (inactive) |  |  |
| Cn1c(-c2ccco2)ccc1-c1ccc(C=O)o1 | > 100 µM (inactive) | > 100 µM (inactive) | > 100 µM (inactive) | 49.7 µM (inactive) | > 100 µM (inactive) | > 100 µM (inactive) | 94.6 µM (inactive) |  | 39.1 µM (inactive) | > 100 µM (inactive) |  | 27.5 µM (inactive) | 56.4 µM (inactive) | > 100 µM (inactive) | 68.1 µM (inactive) | 52.4 µM (inactive) | 95.7 µM (inactive) | 79.1 µM (inactive) |  |  |
| COC(=O)CCC(=O)Nc1cc(Cl)ccc1Cl | > 100 µM (inactive) | > 100 µM (inactive) |  | > 100 µM (inactive) | > 100 µM (inactive) | > 100 µM (inactive) | > 100 µM (inactive) | > 100 µM (inactive) | > 100 µM (inactive) |  |  | > 100 µM (inactive) | > 100 µM (inactive) | > 100 µM (inactive) |  |  |  |  | > 100 µM (inactive) | > 100 µM (inactive) |
| CC1(C)CCCCCCC2CC2CCCCCC(C)(C)C1=O (stereo not drawn) | > 100 µM (inactive) | 66.2 µM (inactive) | > 100 µM (inactive) | > 100 µM (inactive) | > 100 µM (inactive) | 92.5 µM (inactive) | 69.2 µM (inactive) |  | 36.6 µM (inactive) | 63.1 µM (inactive) |  | 19.1 µM (inactive) | > 100 µM (inactive) | > 100 µM (inactive) | 49.9 µM (inactive) | > 100 µM (inactive) | > 100 µM (inactive) | 60.3 µM (inactive) |  |  |
| C[C@]12CC[C@H](OC3CCCCO3)CC1=CC[C@@H]1C2CC[C@]2(C)/C(=N/O)CCC12 (stereo partly drawn) | 15.1 µM (inactive) | 18.8 µM (inactive) | 20.5 µM (inactive) | 18.2 µM (inactive) |  | 15.6 µM (inactive) | 19.9 µM (inactive) | 48.2 µM (inactive) | 19.6 µM (inactive) | > 10 µM (inactive) | 17.5 µM (inactive) |  | 16.4 µM (inactive) | 34.9 µM (inactive) |  |  |  |  |  | 16.6 µM (inactive) |
| COC1CCC2C(NS(=O)(=O)c3ccc(C)cc3)CCCC2O1.Cc1ccc(S(=O)(=O)NC(C)(C)C=O)cc1 (stereo not drawn) | 8.51 µM (inactive) | 11.6 µM (inactive) | 25 µM (inactive) | 24.8 µM (inactive) | 10.3 µM (inactive) | 12.4 µM (inactive) | 11.1 µM (inactive) | 20.3 µM (inactive) | > 34.5 µM (inactive) |  | 8.41 µM (inactive) | 10.2 µM (inactive) | 12.6 µM (inactive) | > 34.5 µM (inactive) |  |  |  |  | 12.7 µM (inactive) |  |
| O=C1/C(=C/c2cccc(Br)c2)Cc2ccccc21 | 39.7 µM (inactive) | 30.8 µM (inactive) | > 100 µM (inactive) | > 100 µM (inactive) | 21.6 µM (inactive) | 19.3 µM (inactive) | 25.9 µM (inactive) |  | > 100 µM (inactive) | 32.1 µM (inactive) |  | 58.7 µM (inactive) | 38.9 µM (inactive) | 93.1 µM (inactive) | 80 µM (inactive) | 53.8 µM (inactive) | 34.5 µM (inactive) | 44.9 µM (inactive) |  |  |
| COC1OCC(O)C(NC(=O)N(C)N=O)C1O (stereo not drawn) | > 100 µM (inactive) | > 100 µM (inactive) | > 100 µM (inactive) |  | > 100 µM (inactive) | > 100 µM (inactive) | > 100 µM (inactive) | > 100 µM (inactive) | > 100 µM (inactive) | > 100 µM (inactive) | > 100 µM (inactive) | > 100 µM (inactive) | > 100 µM (inactive) | > 100 µM (inactive) |  |  |  |  | > 100 µM (inactive) |  |
| COc1cc2c(cc1-c1coc3cc(O)ccc3c1=O)OCO2 [CUNEATIN] | 20.4 µM (inactive) | 18.1 µM (inactive) | 20.5 µM (inactive) | 20.1 µM (inactive) | 20.3 µM (inactive) | 33.3 µM (inactive) | 19.5 µM (inactive) |  | 21.5 µM (inactive) | > 100 µM (inactive) |  | > 100 µM (inactive) | 19.8 µM (inactive) | 19.9 µM (inactive) | > 100 µM (inactive) | 39.6 µM (inactive) | 19.5 µM (inactive) | > 10 µM (inactive) |  |  |
